Values of other authors, collected in PMC8838197, “Coumarin-Resveratrol-Inspired Hybrids as Monoamine Oxidase B Inhibitors: 3-Phenylcoumarin versus trans-6-Styrylcoumarin” (Molecules, 2022).
Values joined by “and” are separate entries in the source; they are usually repeats but may differ in a detail not shown here. Equal entries are not always repeated.

Assays:
[1] = tested on: MAO-A; conditions: cited from earlier work; for pIC50 MAO-A: Table S8; for MAO-A pIC50: data set compounds
[2] = tested on: MAO-B; design: pIC50 MAO-B: unit not given here; conditions: cited from earlier work; for pIC50 MAO-B: Table S8; for MAO-B pIC50: data set compounds

| Compound | pIC50 MAO-B [2] | other results |
| --- | --- | --- |
| COc1cc(-c2cc3cc(C)cc(Br)c3oc2=O)cc(OC)c1OC [Compound 11] | 5.311 | pIC50 MAO-A [1]: 4.506; MAO-A pIC50 [1]: < 5.0 |
| Cc1ccc(-c2cc3cc(O)ccc3oc2=O)cc1 [Compound 14] | 7.173 | pIC50 MAO-A [1]: 4.604 |
| Cc1ccc2oc(=O)c(-c3cccc(O)c3)cc2c1 [Compound 23] | 6.187 | pIC50 MAO-A [1]: 4.455 |
| Cc1ccc2oc(=O)c(-c3ccccc3O)cc2c1 [Compound 24] | 6.921 | pIC50 MAO-A [1]: 4.666; MAO-B pIC50 [2]: > 6.5 and < 6.5 |
| COc1ccc(-c2cc3cccc(OC)c3oc2=O)cc1 [Compound 55] | – | MAO-A pIC50 [1]: < 5.0 |
| Cc1ccc2occ(C(=O)Nc3cccc(Cl)c3)c(=O)c2c1 [Compound 124] | 8.377 | – |
| Cc1ccc2occ(C(=O)Nc3cccc(O)c3)c(=O)c2c1 [Compound 125] | 7.107 | – |
| Cc1ccc(NC(=O)c2coc3ccc(C)cc3c2=O)cc1 [Compound 126] | 6.819 | – |
| Cc1ccc2occ(C(=O)Nc3ccc(Cl)cc3)c(=O)c2c1 [Compound 127] | 7.343 | MAO-B pIC50 [2]: > 6.5 |
| Cc1ccc2occ(C(=O)Nc3ccc(O)cc3)c(=O)c2c1 [Compound 128] | 6.29 | MAO-B pIC50 [2]: < 6.5 |
| COc1ccc2occ(C(=O)Nc3ccccc3)c(=O)c2c1 [Compound 129] | 7.379 | – |
| COc1ccc2occ(C(=O)Nc3cccc(C)c3)c(=O)c2c1 [Compound 130] | 7.662 | – |
| COc1ccc2occ(C(=O)Nc3cccc(Cl)c3)c(=O)c2c1 [Compound 131] | 8.405 | – |
| COc1ccc2occ(C(=O)Nc3cccc(O)c3)c(=O)c2c1 [Compound 132] | 6.945 | – |
| COc1ccc2occ(C(=O)Nc3ccc(C)cc3)c(=O)c2c1 [Compound 133] | 6.676 | – |
| COc1ccc2occ(C(=O)Nc3ccc(Cl)cc3)c(=O)c2c1 [Compound 134] | 7.987 | MAO-B pIC50 [2]: > 6.5 |
| COc1ccc2occ(C(=O)Nc3ccc(O)cc3)c(=O)c2c1 [Compound 135] | 6.171 | MAO-B pIC50 [2]: < 6.5 |
| Cc1ccc2oc(=O)c(-c3ccc(O)c(O)c3)cc2c1 [Compound 136] | 5.328 | – |

| Compound | pIC50 MAO-B [2] | other results |
| --- | --- | --- |
| COc1cc(OC)cc(-c2cc3cccc(C)c3oc2=O)c1 [Compound 137] | 8.187 | MAO-B pIC50 [2]: > 6.5 |
| COc1cc(OC)c(-c2cc3cc(C)ccc3oc2=O)cc1Br [Compound 140] | 6.879 | MAO-B pIC50 [2]: > 6.5 |
| COc1cccc2cc(-c3cccc(C)c3)c(=O)oc12 [Compound 141] | 7.092 | MAO-B pIC50 [2]: > 6.5 |
| O=c1oc2c(O)cccc2cc1-c1ccsc1 [Compound 142] | – | pIC50 MAO-A [1]: 4.754 |
| O=c1oc2c(O)cccc2cc1-c1cc(Br)cs1 [Compound 145] | – | pIC50 MAO-A [1]: 5.207 |
| C#CCNc1cc2ccccc2oc1=O [Compound 148] | 6.022 | – |
| CC#CCNc1cc2ccccc2oc1=O [Compound 149] | 4.922 | – |
| CCC#CCNc1cc2ccccc2oc1=O [Compound 150] | 5.963 | – |
| CCC#CCNc1ccc2c(C)cc(=O)oc2c1 [Compound 151] | 5.401 | – |
| CCC#CCNc1ccc2c(C(F)(F)F)cc(=O)oc2c1 [Compound 152] | 5.094 | – |
| CC(=O)Nc1ccc2c(C)cc(=O)oc2c1 [Compound 153] | – | pIC50 MAO-A [1]: 4.59 |
| CCC(=O)Nc1ccc2c(C)cc(=O)oc2c1 [Compound 154] | – | pIC50 MAO-A [1]: 4.015 |
| Cc1cc(=O)oc2cc(NC(=O)CC(C)(C)C)ccc12 [Compound 157] | 6.602 | – |
| Cc1cc(=O)oc2cc(NC(=O)c3ccccc3)ccc12 [Compound 159] | 6.444 | – |
| Cc1ccc(C(=O)Nc2ccc3c(C)cc(=O)oc3c2)cc1 [Compound 160] | 6.046 | – |
| Cc1cc(=O)oc2cc(NC(=O)c3ccc(Cl)cc3)ccc12 [Compound 161] | 6.509 | – |
| Cc1cc(=O)oc2cc(NC(=O)c3cccs3)ccc12 [Compound 162] | 5.799 | – |
